Assay results reported in the NIST ThermoML archive (doi:10.1021/je700321s).

Assay: xn = mol fraction of the nth substance listed
Conditions: Liquid, Vibrating tube method

CC(C)O [propan-2-ol] + O=C=O
Conditions | mass density [kg/m3]
323.05 K, 7910 kPa, x2 = 0.6086 | 781.7
323.05 K, 8002 kPa, x2 = 0.139 | 777.6
323.05 K, 8009 kPa, x2 = 0.6086 | 782.2
323.05 K, 8208 kPa, x2 = 0.6086 | 783.1
323.05 K, 8404 kPa, x2 = 0.6086 | 784.1
323.05 K, 8527 kPa, x2 = 0.139 | 778.3
323.05 K, 8528 kPa, x2 = 0.9715 | 303.9
323.05 K, 8607 kPa, x2 = 0.6086 | 785
323.05 K, 8800 kPa, x2 = 0.6086 | 785.8
323.05 K, 9004 kPa, x2 = 0.6086 | 786.7
323.05 K, 9031 kPa, x2 = 0.9715 | 381.9
323.05 K, 9033 kPa, x2 = 0.139 | 778.8
323.05 K, 9107 kPa, x2 = 0.9492 | 526.2
323.05 K, 9301 kPa, x2 = 0.6086 | 788
323.05 K, 9400 kPa, x2 = 0.9492 | 575.3
323.05 K, 9501 kPa, x2 = 0.6086 | 788.9
323.05 K, 9519 kPa, x2 = 0.139 | 779.4
323.05 K, 9535 kPa, x2 = 0.9715 | 467.3
323.05 K, 9702 kPa, x2 = 0.6086 | 789.8
323.05 K, 9710 kPa, x2 = 0.9492 | 607
323.05 K, 9805 kPa, x2 = 0.6086 | 790.2
323.05 K, 10015 kPa, x2 = 0.9492 | 628.2
323.05 K, 10046 kPa, x2 = 0.9715 | 540
323.05 K, 10301 kPa, x2 = 0.9492 | 644.3
323.05 K, 10501 kPa, x2 = 0.9715 | 577.6
323.05 K, 10600 kPa, x2 = 0.9492 | 658.2
323.05 K, 10904 kPa, x2 = 0.9492 | 670.3
323.05 K, 11011 kPa, x2 = 0.9715 | 612.9
323.05 K, 11211 kPa, x2 = 0.9492 | 681.1
323.05 K, 11508 kPa, x2 = 0.9492 | 689.9
323.05 K, 11512 kPa, x2 = 0.9715 | 638.9
323.05 K, 11807 kPa, x2 = 0.9492 | 698.3
323.05 K, 12028 kPa, x2 = 0.9715 | 660.4
323.05 K, 12106 kPa, x2 = 0.9492 | 705.9
323.05 K, 12404 kPa, x2 = 0.9492 | 712.6
323.05 K, 12516 kPa, x2 = 0.9715 | 677
323.05 K, 12703 kPa, x2 = 0.9492 | 719.2
323.05 K, 13006 kPa, x2 = 0.9492 | 725.5
323.05 K, 13014 kPa, x2 = 0.9715 | 691.5
323.05 K, 13309 kPa, x2 = 0.9492 | 731.4
323.05 K, 13558 kPa, x2 = 0.9715 | 705.3
323.05 K, 13608 kPa, x2 = 0.9492 | 736.7
323.05 K, 13907 kPa, x2 = 0.9492 | 742
323.05 K, 14003 kPa, x2 = 0.9715 | 715.4
323.05 K, 14210 kPa, x2 = 0.9492 | 746.8
323.05 K, 14504 kPa, x2 = 0.9492 | 751.1
323.05 K, 14516 kPa, x2 = 0.9715 | 725.9
323.05 K, 14804 kPa, x2 = 0.9492 | 755.1
323.05 K, 15024 kPa, x2 = 0.9715 | 735.4
323.05 K, 15506 kPa, x2 = 0.9715 | 743.6
323.06 K, 8724 kPa, x2 = 0.7943 | 745.3
323.06 K, 8802 kPa, x2 = 0.7943 | 746.6
323.06 K, 8905 kPa, x2 = 0.7943 | 747.9
323.06 K, 9005 kPa, x2 = 0.7943 | 749.2
323.06 K, 9204 kPa, x2 = 0.7943 | 751.6
323.06 K, 9410 kPa, x2 = 0.7943 | 753.9
323.06 K, 9606 kPa, x2 = 0.7943 | 756.2
323.06 K, 9792 kPa, x2 = 0.7943 | 758.2
323.06 K, 10001 kPa, x2 = 0.7943 | 760.2
323.06 K, 10310 kPa, x2 = 0.7943 | 763.1
323.07 K, 4004 kPa, x2 = 0.2003 | 775.4
323.07 K, 4307 kPa, x2 = 0.2003 | 775.8
323.07 K, 4497 kPa, x2 = 0.2003 | 776.1
323.07 K, 4802 kPa, x2 = 0.2003 | 776.6
323.07 K, 5014 kPa, x2 = 0.2003 | 776.9
323.07 K, 5510 kPa, x2 = 0.2003 | 777.5
323.07 K, 6029 kPa, x2 = 0.2003 | 778.3
323.07 K, 6513 kPa, x2 = 0.2003 | 779
323.07 K, 7000 kPa, x2 = 0.2003 | 779.7
323.07 K, 7519 kPa, x2 = 0.2003 | 780.5
323.07 K, 8013 kPa, x2 = 0.2003 | 781.1
323.07 K, 8543 kPa, x2 = 0.2003 | 781.8
323.07 K, 9139 kPa, x2 = 0.2003 | 782.5
323.07 K, 9497 kPa, x2 = 0.2003 | 783
323.07 K, 10068 kPa, x2 = 0.2003 | 783.8
332.97 K, 9739 kPa, x2 = 0.7943 | 686.8
332.97 K, 9804 kPa, x2 = 0.7943 | 689.2
332.97 K, 9901 kPa, x2 = 0.7943 | 691.4
332.97 K, 10001 kPa, x2 = 0.7943 | 693.5
332.97 K, 10101 kPa, x2 = 0.7943 | 695.6
332.97 K, 10201 kPa, x2 = 0.7943 | 697.8
332.97 K, 10302 kPa, x2 = 0.7943 | 699.9
332.97 K, 10404 kPa, x2 = 0.7943 | 701.7
332.97 K, 10507 kPa, x2 = 0.7943 | 703.7
332.97 K, 10606 kPa, x2 = 0.7943 | 705.4
332.97 K, 10808 kPa, x2 = 0.7943 | 708.9
332.97 K, 11007 kPa, x2 = 0.7943 | 712
332.97 K, 11204 kPa, x2 = 0.7943 | 715
332.97 K, 11404 kPa, x2 = 0.7943 | 717.8
332.97 K, 11607 kPa, x2 = 0.7943 | 720.5
332.97 K, 11805 kPa, x2 = 0.7943 | 722.9
332.97 K, 12004 kPa, x2 = 0.7943 | 725.3
332.99 K, 2861 kPa, x2 = 0.139 | 759.8
332.99 K, 3000 kPa, x2 = 0.139 | 760
332.99 K, 3297 kPa, x2 = 0.139 | 760.4
332.99 K, 3495 kPa, x2 = 0.139 | 760.7
332.99 K, 4008 kPa, x2 = 0.139 | 761.5
332.99 K, 4509 kPa, x2 = 0.139 | 762.2
332.99 K, 5030 kPa, x2 = 0.139 | 762.8
332.99 K, 6502 kPa, x2 = 0.139 | 764.9
332.99 K, 7005 kPa, x2 = 0.139 | 765.6
332.99 K, 7501 kPa, x2 = 0.139 | 766.3
332.99 K, 8010 kPa, x2 = 0.139 | 766.9
332.99 K, 8521 kPa, x2 = 0.139 | 767.6
332.99 K, 9040 kPa, x2 = 0.139 | 768.3
332.99 K, 9511 kPa, x2 = 0.139 | 768.8
332.99 K, 9974 kPa, x2 = 0.139 | 769.5
332.99 K, 10561 kPa, x2 = 0.9492 | 502.4
332.99 K, 10601 kPa, x2 = 0.9492 | 506.6
332.99 K, 10709 kPa, x2 = 0.9492 | 517.4
332.99 K, 10810 kPa, x2 = 0.9492 | 526.9
332.99 K, 10910 kPa, x2 = 0.9492 | 536.2
332.99 K, 11209 kPa, x2 = 0.9492 | 560.9
332.99 K, 11503 kPa, x2 = 0.9492 | 580
332.99 K, 11803 kPa, x2 = 0.9492 | 596
332.99 K, 12102 kPa, x2 = 0.9492 | 611.4
332.99 K, 12404 kPa, x2 = 0.9492 | 624.7
332.99 K, 12705 kPa, x2 = 0.9492 | 635.9
332.99 K, 13010 kPa, x2 = 0.9492 | 645.6
332.99 K, 13302 kPa, x2 = 0.9492 | 654.5
332.99 K, 13603 kPa, x2 = 0.9492 | 663.6
332.99 K, 13906 kPa, x2 = 0.9492 | 671.7
332.99 K, 14213 kPa, x2 = 0.9492 | 678.9
332.99 K, 14513 kPa, x2 = 0.9492 | 684.7
333.02 K, 7301 kPa, x2 = 0.4248 | 770.1
333.02 K, 7408 kPa, x2 = 0.4248 | 770.5
333.02 K, 7506 kPa, x2 = 0.4248 | 770.6
333.02 K, 7613 kPa, x2 = 0.4248 | 771
333.02 K, 7806 kPa, x2 = 0.4248 | 771.4
333.02 K, 8005 kPa, x2 = 0.4248 | 772
333.02 K, 8209 kPa, x2 = 0.4248 | 772.6
333.02 K, 8226 kPa, x2 = 0.6086 | 753.6
